# According to paper PMC11802874, “The hypolipidemic effect of MI-883, the combined CAR agonist/ PXR antagonist, in diet-induced hypercholesterolemia model” (Nature Communications, 2025):
# Marks after values point to notes of the source that are not given here.
# Experiment: Pharmacokinetic study after single dose in C57BL/6N mice
# Assay type: in vivo, mouse
# Experimental: Pharmacokinetic study of MI-883 in C57BL/6N mice (9–10 weeks old, body weight 20.8 to 24.5 g and average body weight across all groups 22.7 g, SD = 1.1 g) were performed following peroral (p.o.) and intraperitoneal (i.p.) administrations. […] There was also a control group of 4 animals per route. The levels of the parent compound MI-883 were determined by LC-MS/MS in the blood plasma, brain, kidney, liver, muscle (Leg triceps), bile, small intestine, colon, and adipose tissues over time after a single dose of 10 mg/kg. Mice were injected i.p. with 2,2,2-tribromoethanol at a dose of 150 mg/kg prior to drawing the blood. Blood collection was performed from the orbital sinus in BD microtainers tubes containing K2EDTA. Animals were sacrificed by cervical dislocation after the blood samples collection. After this, samples of brain, kidney, liver, muscle (Leg triceps), small intestine, colon, and adipose tissue were collected. Bile samples were taken from the gallbladder of mice. Urine and feces samples were collected using metabolic cages over the course of 1440 min (24 h) after compound administration. All samples were immediately processed, flash-frozen, and stored at –70 °C until subsequent analysis. Detection of the presence of potential metabolites (2-chloro-5-((4-(2-(4-chlorophenyl)-7-fluoroimidazo[1,2-a]pyridin-3-yl)-1H-1,2,3-triazol-1-yl)methyl)-N-methylbenzamide or 2-(4-chlorophenyl)-7-fluoro-3-(1H-1,2,3-triazol-4-yl)imidazo[1,2-a]pyridine) in plasma and tissues was performed. MI-883 was applied in 5%DMSO – 5%PEG300 – 90%corn oil formulation with a final concentration of the compound, 2 mg/ml. Animal treatment and sample preparation were conducted by the Animal Laboratory personnel at Enamine/Bienta.
# Plasma samples (50 μl) were mixed with 200 μl of IS400 solution. After mixing by pipetting and centrifuging for 4 min at 6000 rpm, 2 μl of each supernatant was injected into the LC-MS/MS system. Solution of compound IS-19851 (400 ng/ml in acetonitrile-methanol mixture 1:1, v/v) was used as internal standard (IS400) for quantification of MI-883 in blood plasma, liver, kidney, muscle (Leg triceps), small intestine, and colon samples. Liver, kidney, muscle (Leg triceps), colon, and small intestine samples (weight 100 mg ±1 mg) were disintegrated in 500 μl of IS400 using zirconium oxide beads (120 mg ± 5 mg) in The Bullet Blender® homogenizer for 1–3 min at speed 8–12. After this, the samples were centrifuged for 3 min at 14,000 rpm, and 1 μl of each supernatant was injected into the LC-MS/MS system.
# Brain and adipose tissue samples (weight 100 mg ± 1 mg) were dispersed in 500 μl of IS400(80) using zirconium oxide beads (120 mg ± 5 mg) in The Bullet Blender® homogenizer for 30 s at speed 8. After this, the samples were centrifuged for 4 min at 14,000 rpm, and 1 μl of each supernatant was injected into the LC-MS/MS system. Solution of compound IS-19851 (400 ng/ml in water-acetonitrile-methanol mixture, 2:4:4, v/v/v) was used as internal standard (IS400(80)) for quantification of MI-883 in the brain, adipose tissue, urine, and bile samples. Urine (cumulative) and bile samples were mixed with IS400(80) solution (1:20, v/v). After mixing by pipetting and centrifuging for 4 min at 6000 rpm, 0.5 μl of each supernatant was injected into the LC-MS/MS system. Cumulative feces samples (114 mg–249 mg) were transferred to BMT-20-S tubes with 4 stainless steel balls, mixed with 20 volumes of IS400(80) solution, and dispersed using ULTRA-TURRAX Tube Drive for 1 min at 3000 rpm within the 30 min thrice. After dispersing and centrifuging for 2 min at 14,000 rpm, 0.5 μl of each supernatant was injected into the LC-MS/MS system.
# The concentration of MI-883 in plasma and tissues was determined using a high-performance liquid chromatography/tandem mass spectrometry (HPLC-MS/MS) method. […]
# [1] = male, C57BL/6N, mouse, ip, Liver, 10 mg/kg
compound,measurement,setting,value
"NC(=O)c1cc(Cn2cc(-c3c(-c4ccc(Cl)cc4)nc4cc(F)ccn34)nn2)ccc1Cl [MI-883, 2-chloro-5-((4-(2-(4-chlorophenyl)-7-fluoroimidazo[1,2-a]pyridin-3-yl)-1H-1,2,3-triazol-1-yl)methyl)benzamide]","expected metabolites (N-methyl, N-dimethyl benzamide, triazolyl-imidazopyridine) in plasma and tissues",10 mg/kg p.o. and i.p.,No expected metabolites
same,route of excretion,"10 mg/kg, C57BL/6N mice",excreted mainly via bile
same,tissue distribution,"10 mg/kg, C57BL/6N mice","significantly distributed into the liver, but not the brain"
same,"Peroral bioavailability (%, p.o. vs. i.p.)","estimation based on comparison of AUCs after p.o. and i.p. application, 10 mg/kg",98.6* %
same,PK of MI-883: MI-883 i.p. adipose tis.,"i.p., time 10",2064
same,PK of MI-883: MI-883 i.p. adipose tis.,"i.p., time 120",2083
same,PK of MI-883: MI-883 i.p. adipose tis.,"i.p., time 240",2267
same,PK of MI-883: MI-883 i.p. adipose tis.,"i.p., time 480",1643
same,PK of MI-883: MI-883 i.p. adipose tis.,"i.p., time 720",651
same,PK of MI-883: MI-883 i.p. bile,"i.p., time 10",347
same,PK of MI-883: MI-883 i.p. bile,"i.p., time 120",5663
same,PK of MI-883: MI-883 i.p. bile,"i.p., time 240",6712
same,PK of MI-883: MI-883 i.p. bile,"i.p., time 480",17332
same,PK of MI-883: MI-883 i.p. bile,"i.p., time 720",20058
same,PK of MI-883: MI-883 i.p. brain,"i.p., time 10",20
same,PK of MI-883: MI-883 i.p. brain,"i.p., time 120",88
same,PK of MI-883: MI-883 i.p. brain,"i.p., time 240",86
same,PK of MI-883: MI-883 i.p. brain,"i.p., time 480",62
same,PK of MI-883: MI-883 i.p. brain,"i.p., time 720",33
same,PK of MI-883: MI-883 i.p. colon,"i.p., time 10",7473
same,PK of MI-883: MI-883 i.p. colon,"i.p., time 120",3182
same,PK of MI-883: MI-883 i.p. colon,"i.p., time 240",3492
same,PK of MI-883: MI-883 i.p. colon,"i.p., time 480",1531
same,PK of MI-883: MI-883 i.p. colon,"i.p., time 720",1717
same,PK of MI-883: MI-883 i.p. feces,"i.p., feces, time 1440",689 ng
same,PK of MI-883: MI-883 i.p. kidney,"i.p., time 10",1650
same,PK of MI-883: MI-883 i.p. kidney,"i.p., time 120",4299
same,PK of MI-883: MI-883 i.p. kidney,"i.p., time 240",6585
same,PK of MI-883: MI-883 i.p. kidney,"i.p., time 480",3365
same,PK of MI-883: MI-883 i.p. kidney,"i.p., time 720",1611
same,PK of MI-883: MI-883 i.p. kidney,"i.p., time 1440",11
same,PK of MI-883: MI-883 i.p. liver,"i.p., time 10",9584
same,PK of MI-883: MI-883 i.p. liver,"i.p., time 120",14064
same,PK of MI-883: MI-883 i.p. liver,"i.p., time 240",10374
same,PK of MI-883: MI-883 i.p. liver,"i.p., time 480",6478
same,PK of MI-883: MI-883 i.p. liver,"i.p., time 720",4261
same,PK of MI-883: MI-883 i.p. liver,"i.p., time 1440",24
same,PK of MI-883: MI-883 i.p. muscule,"i.p., time 10",114
same,PK of MI-883: MI-883 i.p. muscule,"i.p., time 120",913
same,PK of MI-883: MI-883 i.p. muscule,"i.p., time 240",720
same,PK of MI-883: MI-883 i.p. muscule,"i.p., time 480",687
same,PK of MI-883: MI-883 i.p. muscule,"i.p., time 720",320
same,PK of MI-883: MI-883 i.p. small intestine,"i.p., time 10",10141
same,PK of MI-883: MI-883 i.p. small intestine,"i.p., time 120",7374
same,PK of MI-883: MI-883 i.p. small intestine,"i.p., time 240",4886
same,PK of MI-883: MI-883 i.p. small intestine,"i.p., time 480",1858
same,PK of MI-883: MI-883 i.p. small intestine,"i.p., time 720",873
same,PK of MI-883: MI-883 i.p,"i.p., time 10",565
same,PK of MI-883: MI-883 i.p,"i.p., time 120",5532
same,PK of MI-883: MI-883 i.p,"i.p., time 240",3130
same,PK of MI-883: MI-883 i.p,"i.p., time 480",2314
same,PK of MI-883: MI-883 i.p,"i.p., time 720",1008
same,PK of MI-883: MI-883 i.p,"i.p., time 1440",1
same,Cmax,[1],14100 ng/mL
same,Tmax,[1],0.5 h
same,half-life,[1],2.53 h
same,Cmax,"male, C57BL/6N, mouse, ip, Plasma, 10 mg/kg",5530 ng/mL
same,Vd,"male, C57BL/6N, mouse, plasma, 10 mg/kg, calculated from data after a single dose application, read-out: volume of distribution (Vd) in mice",0.06 L
same,Cmax,"male, C57BL/6N, mouse, po, Liver, 10 mg/kg",14900 ng/mL
